Experimental data taken from US5776769A, “Cell-type specific methods and devices for the low temperature preservation of the cells of an animal species” (Methodist Hospital of Indiana, priority 1995, dated 1998).

How the values were obtained:
human spermatozoa = settings: cited from earlier work
human sperm [1] = assay: Sperm motility (CASA) after glycerol addition and removal procedures; type: cell-based; settings: for sperm motility loss: final 1M glycerol, 22° C.
Method: Sperm motility was measured by computer assisted semen analysis (CASA) using CELLSOFT™, version 3.2/C. CASA was performed before, during, and after the anisosmotic exposures of the sperm samples. All experiments were conducted at 22° C.
TL-HEPES medium with 2M glycerol was either one-step or stepwise added to an equal volume of the isotonic sperm suspension to achieve a final 1M glycerol concentration at 22° C. Glycerol in the sperm was removed by dilution either by a one-step or stepwise addition of the TL-HEPES medium with or without an osmotic buffer (sucrose) placed into the cell suspension. The detailed procedures for the glycerol addition and removal are described in Tables 2-5. Sperm motility before, during, and after the different glycerol addition and removal procedures was measured by CASA. The membrane integrity of the sperm was determined by the dual staining technique and flow cytometry.
The time interval between two steps was approximately 1-2 minutes. The volume of solution added in each step was calculated using Equations 5 or 6.
The final 90 μl of sperm suspension were further diluted by adding 180 μl of TALP solution for the CASA analysis. The time interval between two steps is approximately 1-2 minutes. The volume of diluent added in each step was calculated using Equations 7 or 8.
Add 2000 μl of isotonic solution directly to 100 μl of cell suspension with 1M glycerol.
(1) Add 2000 μl of sucrose buffer medium

human sperm cells = assay: Glycerol removal with porous-membrane diffusion device; type: cell-based
From the text: A cell suspension with cryoprotectants is placed in the chamber (region 2) with an internal space/thickness of L. Two walls of the chamber are the porous membranes (regions 1 and 3) with special characteristics (e.g. membrane thickness: 150 μm, pore size: 0.22 to 0.65 μm in diameter, pore area: 70% of the total membrane surface area). For removing CPAs, isotonic cell culture medium without CPAs are continuously pumped and run through compartments (4 and 5) to quickly remove CPAs diffusing from the chamber (region 2) through the porous membrane. Meanwhile, the isotonic medium diffuses into the chamber to dilute the CPA concentration in the cell suspension. Because the porous membrane used is a nonselective membrane (pore size […]), CPAs and other solutes and solvents (water) diffuse freely across the […] with a constant cell suspension volume in the chamber. The pore size of the porous membrane, the thickness of the cell chamber, the diffusibility of CPA in the solution, the permeability coefficients of the cell membrane to water and CPA are control factors used in the design of the system. Basic assumptions and mathematical formulation describing the CPA diffusion across the porous membrane and the change of CPA concentration distribution in the chamber (i.e., the extracellular environment) are as follows:
A corresponding computer program using a finite difference method to calculate the above equations is used to simulate the mass transfer process in the system. The values of f, L2, Cf, Ci, L1, D1, D2 and hD can be used as control factors or adjustable parameters in the computer simulation. […] Calculated kinetic changes of glycerol concentration (initial 1M) at the chamber position A (center, see FIG. 19) and B (internal surface of porous membrane, see FIG. 19) are shown in FIG. 21, and the corresponding cell volume changes are calculated and predicted to be below the cell tolerance limit (1.1 times isotonic sperm volume), as shown in FIG. 22.

human sperm [2] = assay: Sperm membrane integrity (dual staining, flow cytometry) after glycerol addition and removal; type: cell-based; settings: in 1M glycerol or after addition and removal of 1M glycerol by the different procedures
From the text: One preferred procedure to assess cell viability utilizes dual flourescent staining and flow cytometric analysis as disclosed by Garner in Assessment of Spermatozoal Function Using Dual Fluorescent Staining and Flow Cytometric Analysis, Biol. Reprod. 34, 127-138, 1986, which is hereby incorporated into this specification by reference. Propidium iodide (PI) is a bright red, nucleic acid-specific fluorophore available from the Sigma Chemical Co. PI permeates poorly into sperm cells with intact plasma membranes, however, it readily diffuses into sperm having damaged membranes and stains the DNA red. […]
Plasma membrane integrity was analyzed by placing five μl of CFDA (suspended in 0.25 mg/ml of DMSO) and 5 μl of PI (suspended in 1 mg/ml H2 O) solutions into 0.5 ml of a particular sperm suspension. […] A total of 1×10^5 spermatozoa per treatment were analyzed using a FACSTAR PLUS™ flow cytometer.
TL-HEPES medium with 2M glycerol was either one-step or stepwise added to an equal volume of the isotonic sperm suspension to achieve a final 1M glycerol concentration at 22° C. […] Sperm motility before, during, and after the different glycerol addition and removal procedures was measured by CASA. The membrane integrity of the sperm was determined by the dual staining technique and flow cytometry.

O [Water, water]
Water permeability coefficient (Lp) (human spermatozoa; not told): 2.16 um/minutes/atm

OCC(O)CO [glycerol]
sperm that maintained motility (human sperm [1]; eight-step FMS removal of 1M glycerol): over 92%
sperm that lost motility (human sperm [1]; eight-step FVS removal of 1M glycerol): Thirty-five percent
sperm motility loss (human sperm [1]; four-step FMS addition): less than 8%
sperm motility loss (human sperm [1]; one step addition): approximately 20%
motile sperm that kept motility (human sperm [1]; one-step removal of 1M glycerol): Less than 30%
motility loss (human sperm [1]; two-step removal of 1M glycerol using sucrose as non-permeating buffer (600 mOsm)): ~45%
time for removal of over 95% of 1M glycerol (human sperm cells): ≤ 10 min
cell clumping, loss in motility or membrane integrity, or curling of sperm tails (human sperm cells; 1M glycerol removal within 10 minutes): without significant cell clumping, loss in motility or membrane integrity, or curling of sperm tails
glycerol removed from the human sperm cells (human sperm cells; 1M glycerol, within 10 minutes): over 95%
membrane integrity of the human sperm (human sperm [2]): appeared to maintain membrane integrity under all experimental conditions
Glycerol permeability coefficient (PCPA) (human spermatozoa; 22° C., human spermatozoa): 18.3 ×10⁻⁶ cm/s
